Values quoted from earlier work, collected in patent publication US9629818B2, “Pharmaceutical composition of tapentadol for parenteral administration” (TORRENT PHARMACEUTICALS LTD, priority 2012, dated 2017).

Legend:
[1] = given orally
[2] = in vivo

CC[C@@H](c1cccc(O)c1)[C@@H](C)CN(C)C [tapentadol, (−)-(1R,2R)-3-(3-dimethylamino-1-ethyl-2-methyl-propyl)-phenol]
parent compound metabolized [1]: About 97%
duration of analgesic effect [2]: ≤ 12 h
